US5597822A, “Pharmaceutical compositions for the prevention and/or treatment a gastrointestinal diseases” (Egis Pharmaceutical, priority 1993, dated 1997)
≈ marks a conversion by molar mass, not a printed value. Like-named read-outs stand apart in the source and are kept apart here.

Columns and labels:
[1] = in vivo; conditions: mouse, po, NMRI mice, 7 days, "higher than" = highest dose administered without any death
Procedure: The acute toxicity was determined on NMRI strain mice of both sexes weighing 20 to 25 g each by using 6 animals for each dose. The compounds to be tested were administered perorally in a volume of 20 ml/kg, the highest dose applied was 1000 mg/kg. After the administration the animals were kept under usual laboratory conditions for 7 days.
The data given as "higher than" a certain value mean the highest dose administered without noting any death of animals.

[2] = test system: gastric erosions induced by ethanol containing hydrochloric acid; assay: Test with ethanol containing hydrochloric acid (gastric erosions); type: in vivo, rat; conditions: for Inhibition of the erosion index, relative activity: ED50 of cetraxate divided by ED50 of compound tested; for ED50: po, rat, p.o., HCl/absolute ethanol 1 to 50; for Inhibition of the erosion frequency, relative activity: related to cetraxate
Procedure: (§1) Rats of both sexes weighing 200 to 250 g, each previously starved for 24 hours, were used in this experiment. The lesions of gastric mucosa were induced by the oral administration of absolute ethanol in a dose of 1 ml/animal. After one hour following the administration, the animals were killed by an overdose of ether, the stomach was excised and the alterations of gastric mucosa were examined. The lengths of the erosions were measured and summarized (expressed in mm) for each stomach to obtain the erosion index by calculating the average value of the group. The inhibition was calculated in percentage by comparing the value of the group treated with ethanol to that of the control group treated only with the vehicle. Various doses of the compounds to be tested were administered, perorally, in a volume of 5 ml/kg using a pretreatment time of 60 minutes. Eight rats were used for each dose. /A. Robert, Gastroenterology 77, 761-767 (1979)/.
The principle of the method consists in that, simultaneously with the administration of absolute ethanol, hydrochloric acid is introduced to the stomach. Thus, the influence on systemic gastric acid inhibition action can be eliminated by the presence of the exogenous acid.
The reagent used in this test was a mixture of concentrated aqueous hydrochloric acid and absolute ethanol in a mass ratio of 1 to 50 in accordance with the dilution ratio used by Yamazaki et al., see Japan J. Pharmacol., 55, 415-424 (1991). Otherwise, the experiment was performed as described under test 2.1., however, in addition to the erosion index calculated from the lengths of the erosions in mm, the ratio of occurence of animals showing at least one gastric erosion within a test group, i.e. the erosion frequency, was also evaluated.

[3] = test system: gastric mucosa lesions induced by absolute ethanol; assay: Gastroprotective activity, test with absolute ethanol (gastric mucosa erosions); type: in vivo, rat; conditions: for Relative activity related to the inhibition of the free acid: ED50 of gastric acid inhibition (Shay) related to ED50 of inhibition of gastric erosion; for ED50: po; for gastroprotective activity (in words): test with absolute ethanol
Procedure: as §1
^x Relative activity = ED50 value of the gastric acid inhibition
related to the ED50 value of the inhibition of the gastric erosion.

[4] = test system: Helicobacter pylori; assay: Antibacterial effect on Helicobacter pylori (MIC, blood agar); type: cell-based; conditions: Helicobacter pylori, 72 h
Procedure: Helicobacter pylori strains used in these experiments were obtained from the biopsial samples of the stomachs of patients suffering from ulcerative diseases of the gastrointestinal system. From the pure culture of isolates a thick suspension was prepared with cysteine-inositol solution suitable for lyophilisation, and the suspension obtained was maintained in cold-resistant plastic ampoules in a deep-freezing chamber at a temperature of about -196 ° C. For the determination of the inhibitory effect of the compounds tested on Helicobacter pylori, blood agar containing 10 mg/liter of vancomycin and 25 mg/liter of amphotericin B was used /C. A. M. McNulty and I. C. Dent: Susceptibility of clinical isolates of Campylobacter pylori to twenty one antimicrobial agents. Book of Abstracts, 4th European Congress of Clinical Microbiology, Nice (1989)/.
The plates containing the strains were cultivated at 37° C. for 72 hours under a gaseous atmosphere containing 10 per cent of carbon dioxide and 5 per cent of oxygen /D. M. Jones et al., J. Clin. Pathol., 37, 1002 (1984)/.
The culture media were inoculated by diluting the broth culture of the strains grown overnight or with a suspension prepared from a culture obtained on a solid medium. About 10^5 of germs were applied to the surface of each plate.
A series of dilution were prepared from the compound to be-tested. The MIC (minimal inhibiting concentration) value of the compounds tested was considered to be the lowest concentration inhibiting the growth of the test organism completely.

[5] = erosion frequency, read-out: Inhibition of the erosion frequency, ED50 p.o.
[6] = erosion index, read-out: Inhibition of the erosion index, ED50 p.o.
[7] = rat, 60 min pretreatment, absolute ethanol 1 ml/animal, erosion index

Molecule	LD50 at 168 h [1]	Inhibition of the erosion index, relative activity ([2]; erosion index)	ED50 [2, 5]	ED50 [2, 6]	Inhibition of the erosion frequency, relative activity ([2]; erosion frequency)	Relative activity related to the inhibition of the free acid [3]	ED50 [3, 7]	gastroprotective activity (in words) [3]	Gastroprotective activity: test with absolute ethanol, ED50 p.o. ([3]; rat, p.o., 60 min pretreatment, absolute ethanol 1 ml/animal, erosion index)	MIC ([4]; strain 867/90)	MIC ([4]; strain 1596)	MIC ([4]; strain 3842)	MIC ([4]; strain 6656)	MIC ([4]; strain 6709)
CCCN(CCC)CC(O)CO/N=C1\CCCC\C1=C/c1ccc(Cl)c(Cl)c1 (racemic) [Compound B, (R,S)-2-(E)-(3,4-dichlorophenylmethylene)-1-(E)-[(3-dipropylamino-2-hydroxypropoxy)imino]cyclohexane]	> 1000 mg/kg	1.7	20.1 mg/kg	12.7 mg/kg	6.4	12.5	12.6 mg/kg							
COc1ccc2nc([S+]([O-])Cc3ncc(C)c(OC)c3C)[nH]c2c1 (centres unmarked) [omeprazole, 5-methoxy-2-[[(4-methoxy-3,5-dimethyl-2-pyridyl)methyl]sulfinyl]benzimidazole, reference compound]	> 4000 mg/kg							low gastroprotective action in a rather high dose						
CC(C)NCC(O)CO/N=C1\CCCC\C1=C/c1ccc(Br)cc1 (racemic) [Compound K]		1.9	15 to 30 mg/kg	11.4 mg/kg	6-12	about 17.9	6.7 mg/kg							
OC(CNC1CCCCC1)CO/N=C1\CCCC\C1=C/c1ccc(Cl)cc1 (racemic) [Compound E, (R,S)-2-(E)-(4-chlorophenylmethylene)-1-(E)-[(3-cyclohexylamino-2-hydroxypropoxy)imino]cyclohexane]	> 1000 mg/kg			10.3 mg/kg	3-6									
CN1CCN(CC(=O)N2c3ccccc3C(=O)Nc3cccnc32)CC1 [pirenzepine, reference compound]								low gastroprotective action in a rather high dose						
C=CCNCC(O)CO/N=C1\CCCC\C1=C/c1ccc(Cl)cc1 (racemic) [Compound I, (R,S)-2-(E)-(4-chlorophenylmethylene)-1-(E)-[(3-propenylamino-2-hydroxypropoxy)imino]cyclohexane]		2.6	39.2 mg/kg	8.6 mg/kg	4.8	higher than 10.0	8.4 mg/kg							
CCCCCCNCC(O)CO/N=C1\CCCC\C1=C/c1ccc(Cl)cc1 (racemic) [Compound F, (R,S)-2-(E)-(4-chlorophenylmethylene)-1-(E)-[(3-hexylamino-2-hydroxypropoxy)imino]-cyclohexane]	> 1000 mg/kg			7.2 mg/kg										
CCCCNCC(O)CO/N=C1\CCCC\C1=C/c1ccc(Cl)c(Cl)c1 (racemic) [Compound A, (R,S)-2-(E)-(3,4-dichlorophenylmethylene)-1-(E)-[(3-butylamino-2-hydroxypropoxy)imino]cyclohexane]	> 1000 mg/kg	3.1	18.8 mg/kg	7.1 mg/kg	10.1	60.5	2 mg/kg							
CC(C)N(CC(O)CO/N=C1\CCCC\C1=C/c1ccc(Cl)cc1)C(C)C (racemic) [Compound J, (R,S)-2-(E)-(4-chlorophenylmethylene)-1-(E)-[(3-diisopropylamino-2-hydroxypropoxy)imino]cyclohexane]		3.7	19.1 mg/kg	5.9 mg/kg	9.9	about 25.0	7 mg/kg							
beta-D-fructofuranosyl alpha-D-glucopyranoside hydrogen sulfate basic aluminium salt [sucralfate, reference compound]								nearly identical activity	69.0 mg/kg					
CN(C)CCCNCC(O)CO/N=C1\CCCC\C1=C/c1ccccc1 (racemic) [Compound M, (R,S)-2-(E)-(phenylmethylene)-1-(E)-{[3-(3-dimethylamino-1-propylamino)-2-hydroxypropoxy]imino}cyclohexane]		1.3	30 to 60 mg/kg	17.5 mg/kg	3-6	about 6.7	29.9 mg/kg							
CCCCNCC(O)CO/N=C1\CCCC\C1=C/c1ccc(Cl)cc1 (racemic) [Compound L, (R,S)-2-(E)-(4-chlorophenylmethylene)-1-(E)-[(3-butylamino-2-hydroxypropoxy)imino]cyclohexane]	1300 mg/kg	2.2	30 to 60 mg/kg	9.8 mg/kg	3-6	18.3	7.6 mg/kg							
CN(CC(O)CO/N=C1\CCCC\C1=C/c1ccc(Cl)cc1)C1CCCCC1 (racemic) [Compound D, (R,S)-2-(E)-(4-chlorophenylmethylene)-1-(E)-[3'-(N-methyl-N-cyclohexylamino)-2'-hydroxypropoxyimino]cyclohexane]	> 1000 mg/kg	4.2	8.3 mg/kg	5.2 mg/kg	22.8	32.3	2.6 mg/kg			15.6 µg/mL (≈ 38.5 µM)	15.6 µg/mL (≈ 38.5 µM)	15.6 µg/mL (≈ 38.5 µM)	15.6 µg/mL (≈ 38.5 µM)	15.6 µg/mL (≈ 38.5 µM)
CNC(=NC#N)NCCSCc1nc[nH]c1C [cimetidine, 2-cyano-1-methyl-3-[2-[[(5-methyl-4-imidazolyl)-methyl]thio]ethyl]guanidine, reference compound]								low gastroprotective action in a rather high dose						
CCCCCCNCC(O)CO/N=C1\CCCC\C1=C/c1ccccc1 (racemic) [Compound C, (R,S)-2-(E)-(phenylmethylene)-1-(E)-[(3-hexylamino-2-hydroxypropoxy)imino]cyclohexane]	> 1000 mg/kg			11.5 mg/kg						3.9 µg/mL (≈ 10.9 µM)	7.8 µg/mL (≈ 21.8 µM)	3.9 µg/mL (≈ 10.9 µM)	3.9 µg/mL (≈ 10.9 µM)	3.9 µg/mL (≈ 10.9 µM)
CN(C)CC(O)CO/N=C1\CCCC\C1=C/c1ccc(Cl)cc1 (racemic) [Compound G, (R,S)-2-(E)-(4-chlorophenylmethylene)-1-(E)-[(3-dimethylamino-2-hydroxypropoxy)imino]cyclohexane]				15.8 mg/kg	3-6	60-125				31.2 µg/mL (≈ 92.6 µM)	125 µg/mL (≈ 371 µM)	62.5 µg/mL (≈ 186 µM)	31.2 µg/mL (≈ 92.6 µM)	125 µg/mL (≈ 371 µM)
COc1ccccc1/C=C1\CCCC\C1=N/OCC(O)CN1CCN(c2ccccc2OC)CC1 (racemic) [Compound H, (R,S)-2-(E)-(2-methoxyphenylmethylene)-1-(E)-{3-[4-(2-methoxyphenyl)-1-piperazinyl]-2-hydroxypropoxyimino}cyclohexane]		0.4-0.7	> 60 mg/kg	30 to 60 mg/kg	< 3	higher than 20.0	9.5 mg/kg							
